Experimental findings from patent publication EP0103830A2, “Phenylethylemine derivatires as growth stimulators” (priority 1982, dated 1984) are described below.

Holding throughout (assay type): in vivo
A short description of assay [1]: Feeding trial in rats over 15 days (Beispiel 7), results relative to control. Particulars: 25 ppm in feed, 15 Tage, Ratten weiblich SPF-Wistar; Kontrolle = 100 %. From the text: Vor Beginn des Fütterungsversuches wurden die Ratten zwei Tage lang an die neuen Haltungsbedingungen adaptiert, wobei generell das Versuchsfutter ohne Wirkstoffzusatz verabreicht wurde. Am dritten Versuchstag wurden die Tiere randomisiert und anschließend die Versuchsgruppen so gebildet, daß sowohl die Mittelwerte als auch die Streuungen in den Körpergewichten zwischen den Gruppen gleich waren.
Der Fütterungsversuch, in dem die Futteraufnahme, der Körpergewichtszuwachs und die Futterverwertung individuell bestimmt wurden, erstreckte sich über 15 Tage.
Als Wirkstoffe wurden dem Futter untergemischt: • 1-(3,4-Dihydroxyphenyl)-2-[1-methyl-2-(3,4-methylendioxyphenyl)ethylamino]ethanolhydrochlorid (= Verbindung I), • 2-Amino-1-(3-hydroxyphenyl)ethanolhydrochlorid (= Verbindung II), • 2-Amino-1-(3-hydroxyphenyl)propanolh^ydrogentartrat (= Verbindung III), • 1-(4-Hydroxyphenyl)-2-(1-methyl-3-phenylpropylamino)-propanolhydrochlorid (= Verbindung IV), • 2-Ethylamino-1-(3-hydroxyphenyl)ethanolhydrochlorid (= Verbindung V), • 1- (3,5-Dihydroxyphenyl) -2- (3-phenylpropylamino) propanol als Salz der 4-Aminobenzoesäure (= Verbindung VI), • 1-(3-Hydroxyphenyl)-2-(1,1-dimethyl-2-phenylethylamino)-ethanol als Salz der 4-Aminobenzoesäure (= Verbindung VII), • 5-[2-[1,1-Dimethylethyl)amino]-1-hydroxyethyl]-2-hydroxy- benzamid . HCl (= Verbindung VIII)
Ratten, weiblich, SPF-Wistar 36 Tiere/Versuch Gewicht: 90 bis 150 g Futter: Haltungsdiät für Ratten mit folgender Zusammensetzung: […]

Assay [2] in a line: Feeding trial (Beispiel 4): feed intake, weight gain, feed conversion. The following applies: 25 ppm in feed, n = 6, whole trial period (13 Tage). From the text: (§1) Die Tiere wurden 2 Tage an die neuen Haltungsbedingungen adaptiert, wobei generell das Versuchsfutter ohne Wirkstoffzusatz verabreicht wurde. Am dritten Versuchstag wurden die Tiere randomisiert und anschließend die Versuchsgruppen so gebildet, daß sowohl die Mittelwerte als auch die Streuungen in den Körpergewichten zwischen den Gruppen gleich waren. Nach einer 5-tägigen Vorperiode wurde eine 8-tägige Hauptperiode durchgeführt, in denen Futteraufnahme, Zuwachs und Futterverwertung bestimmt wurden.
(§2) Es wurden folgende Behandlungen geprüft: • b 1) Negativkontrolle (n = 12) • b 2) 25 ppm (Wirkstoff Herstellungsbeispiel 2) (n = 6)

Assay [3] in a line: Feeding trial (Beispiel 5): feed intake, weight gain, feed conversion. The following applies: 25 ppm in feed, n = 6, whole trial period (13 Tage).
Source text: as §1, §2

Assay [4] is described as follows: Feeding trial (Beispiel 6): feed intake, weight gain, feed conversion. Particulars: 25 ppm in feed, n = 6, whole trial period (13 Tage).
Source text: as §1, §2

Assay [5] is described as follows: Feeding trial (Beispiel 1): feed intake, weight gain, feed conversion. The following applies: 25 ppm in feed, n = 6, whole trial period (13 Tage), Ratten weiblich SPF Wistar.
Source text: as §1
(§3) Es wurden folgende Behandlungen geprüft: • b 1) Negativkontrolle (n = 12) • b 2) 25 ppm (Wirkstoff Herstellungsbeispiel 1) (n = 6)

Assay [6] is described as follows: Feeding trial (Beispiel 2): feed intake, weight gain, feed conversion. Particulars: 0,2 ppm in feed, whole trial period (12 Tage). From the text:
Die Tiere wurden 2 Tage an die neuen Haltungsbedingungen adaptiert, wobei generell das Versuchsfutter ohne Wirkstoffzusatz verabreicht wurde. Am dritten Versuchstag wurden die Tiere randomisiert und anschließend die Versuchsgruppen so gebildet, daß sowohl die Mittelwerte als auch die Streuungen in den Körpergewichten zwischen den Gruppen gleich waren. Nach einer 5-tägigen Vorperiode wurde eine 7-tägige Hauptperiode durchgeführt, in denen Futteraufnahme, Zuwachs und Futterverwertung bestimmt wurden.
Es wurden folgende Behandlungen geprüft: • b 1) Negativkontrolle (n = 24) • b 2) 0,2 ppm (Wirkstoff Herstellungsbeispiel 1)

Assay [7] can be described thus: Feeding trial (Beispiel 3): feed intake, weight gain, feed conversion. Particulars: 25 ppm in feed, n = 6, whole trial period (13 Tage).
Source text: as §1, §3

Where a name gives a salt, the structure may show the parent alone.

On to `NCC(O)c1cccc(O)c1` (stereo not drawn) [Verbindung II, 2-Amino-1-(3-hydroxyphenyl)ethanolhydrochlorid], for which, in assay [1], the Futteraufnahme turned out to be 98%, the Futterverwertung is reported as 91,6% and the Zuwachs was found to be 107%.

For the compound `CC(C)(C)NCC(O)c1cc(Br)c(O)c(Br)c1` (stereo not drawn) [Herstellungsbeispiel 2], the values for the Futterverwertung in assay [2] (Negativkontrolle 4,75), in assay [3] (Negativkontrolle 5,62) and in assay [4] (Negativkontrolle 5,04) were 4,41 g/g, 3,96 g/g and 4,36 g/g, respectively. For the same compound, the Zuwachs in assay [2] (Negativkontrolle 41,3) is 45,1 g; in assay [3] (Negativkontrolle 27,9) it was 43,4 g; in assay [4] (Negativkontrolle 37,0), 43,2 g. Besides, the Futteraufnahme was 199 g in assay [2] (Negativkontrolle 196), 171 g in assay [3] (Negativkontrolle 152) and 183 g in assay [4] (Negativkontrolle 182).

Take `CC(C)(C)NCC(O)c1ccc(O)c(C(N)=O)c1` (stereo not drawn) [Verbindung VIII, 5-[2-[(1,1-Dimethylethyl)amino]-1-hydroxyethyl]-2-hydroxy-benzamid . HC1]: in assay [1], the Futteraufnahme is on record as 106%, the Futterverwertung is reported as 84,8% and the Zuwachs is given as 125,0%.

`CC(CCc1ccccc1)NC(C)C(O)c1ccc(O)cc1` (stereo not drawn) [Verbindung IV, 1-(4-Hydroxyphenyl)-2-(1-methyl-3-phenylpropylamino)-propanolhydrochlorid]: in assay [1], the Futteraufnahme was 101,7%, the Futterverwertung is listed as 96,9% and the Zuwachs is reported as 105%.

Take `CCNCC(O)c1cccc(O)c1` (stereo not drawn) [Verbindung V, 2-Ethylamino-1-(3-hydroxyphenyl)ethanolhydrochlorid]: in assay [1], the Futteraufnahme is 104%, the Futterverwertung is recorded as 90,4% and the Zuwachs amounted to 115%.

With `CC(Cc1ccc2c(c1)OCO2)NCC(O)c1ccc(O)c(O)c1` (stereo not drawn) [Verbindung I, 1-(3,4-Dihydroxyphenyl)-2-[1-methyl-2-(3,4-methylendioxyphenyl)ethylamino]ethanolhydrochlorid], in assay [1], the Futteraufnahme worked out at 104%, the Futterverwertung is on record as 92,9% and the Zuwachs is on record as 112%.

For `COc1ccc(C(O)CNC(C)(C)C)cc1` (stereo not drawn) [Herstellungsbeispiel 1, 2-t-Butylamino-1-(4-methoxyphenyl)-ethanol], the Futterverwertung is 4,03 g/g in assay [5] (Negativkontrolle 5,62), 4,21 g/g in assay [6] (Negativkontrolle 4,88) and 4,41 g/g in assay [7] (Negativkontrolle 5,04). The Zuwachs in assay [5] (Negativkontrolle 27,9) is on record as 43,7 g; in assay [6] (Negativkontrolle 41,0), 50,5 g; in assay [7] (Negativkontrolle 37,0), 42,4 g. Moreover, the Futteraufnahme in assay [5] (Negativkontrolle 153) turned out to be 175 g; in assay [6] (Negativkontrolle 200), 213 g; in assay [7] (Negativkontrolle 182), 187 g.

In the case of `CC(N)C(O)c1cccc(O)c1` (stereo not drawn) [Verbindung III, 2-Amino-1-(3-hydroxyphenyl)propanolhydrogentartrat], in assay [1], the Futteraufnahme stood at 99%, the Futterverwertung is given as 96,1% and the Zuwachs was 103%.
